Laboratory results as given in patent publication US20240033234A1, “THERAPEUTIC COMPOUNDS, FORMULATIONS, AND USE THEREOF” (Tvardi Therapeutics, Inc., priority 2022, published 2024).
Values joined by “and” are separate entries in the source; they are usually repeats but may differ in a detail not shown here. Identical values can stand only once.

Assay: Accelerated and long term stability study of TTI-101 (Batch A, Batch B): HPLC assay, purity, impurities and water content after storage at 5° C., 25° C./60% RH, 30° C./65% RH or 40° C./75% RH
Assay type: physicochemical
Design: key to Impurity RRT 1.05: NQ: ≥0.02% and <0.05%; —: no peak
Settings: Storage 25° C./60% RH
Procedure: Exemplary HPLC conditions: diluent was 0.1% trifluoroacetic acid (TFA) in acetonitrile, Mobile Phase A was 0.05% TFA in water, and Mobile Phase B was 0.05% TFA in acetonitrile, column (Agilent, Eclipse XDB-C18, 3.0×100 mm, particle size 1.8 μm), flow (0.425 mL/min), and detector (280 nm diode array).
Batch A was prepared analogously using Method 3 as described in Example 1. Batch B was prepared according to Method 5 as described in Example 1.
Samples of TTI-101 were stored at 5° C., 25° C./60% RH, 30° C./65% RH, or 40° C./75% RH. TTI-101 was stored in an LDPE bag enclosed with a Nylon cable tie and then transferred to another LDPE bag and enclosed with a Nylon cable tie. The enclosure was put into an HDPE bottle and closed with a polyethylene-lined polypropylene cap. The samples were stored under the above-identified conditions.
The samples were analyzed using HPLC with the exemplary conditions identified above. Relative retention time (RRT) for Compound 5 was about 0.83, Compound 4 was about 1.05-1.06, Compound 6 was about 1.15-1.17, and compound of formula (IV) was about 0.99.
• NA not applicable • NQ ≥0.02% and <0.05% • Avg average • Cmpd compound • — no peak • M month • RRT relative retention time

[1] = 0 M, Prep P1-P5, listed as Batch B
[2] = 3 M, Prep P1-P2, listed as Batch B

Compound: COc1ccc(S(=O)(=O)Nc2cc(-c3c(O)ccc4ccccc34)c(O)c3ccccc23)cc1 [TTI-101]
- Assay [1]: 99.0% and 100.5% and 99.3% and 99.5% and 98.8%
- Impurity RRT 1.16 (Cmp 6) [1]: 0.08 area % and 0.07 area %
- Impurities Total (1 M, Avg): 0.5 area %
- Impurity RRT 0.80 (1 M, Avg): NQ (≥0.02% and <0.05%)
- Impurity RRT 0.84 (1 M, Avg): NQ (≥0.02% and <0.05%)
- Impurity RRT 0.87 (1 M, Avg): NQ (≥0.02% and <0.05%)
- Impurity RRT 0.99 (1 M, Avg): 0.10 area %
- Impurity RRT 1.02 (1 M, Avg): NQ (≥0.02% and <0.05%)
- Impurity RRT 1.05 (1 M, Avg): NQ (≥0.02% and <0.05%)
- Impurity RRT 1.06 (Cmpd 4) (1 M, Avg): NQ (≥0.02% and <0.05%)
- Impurity RRT 1.17 (Cmp 6) (1 M, Avg): 0.39 area %
- Purity (1 M, Avg): 99.4%
- Water Content (1 M, Avg): 0.1%
- Impurities Total (1 M, Prep P1-P2): 0.5 area %
- Impurity RRT 0.80 (1 M, Prep P1-P2): NQ (≥0.02% and <0.05%)
- Impurity RRT 0.84 (1 M, Prep P1-P2): NQ (≥0.02% and <0.05%)
- Impurity RRT 0.87 (1 M, Prep P1-P2): NQ (≥0.02% and <0.05%)
- Impurity RRT 0.99 (1 M, Prep P1-P2): 0.10 area %
- Impurity RRT 1.02 (1 M, Prep P1-P2): NQ (≥0.02% and <0.05%)
- Impurity RRT 1.17 (Cmp 6) (1 M, Prep P1-P2): 0.39 area %
- Purity (1 M, Prep P1-P2): 99.4%
- Water Content (1 M, Prep P1-P2): 0.1%
- Assay (1 M, Prep P1-P2, listed as Batch B): 99.0% and 99.2%
- Assay (3 M, Avg): 97.8%
- Impurities Total (3 M, Avg): 0.4 area %
- Impurity RRT 0.48 (3 M, Avg): NQ (≥0.02% and <0.05%)
- Impurity RRT 0.80 (3 M, Avg): NQ (≥0.02% and <0.05%)
- Impurity RRT 0.84 (3 M, Avg): NQ (≥0.02% and <0.05%)
- Impurity RRT 0.87 (3 M, Avg): NQ (≥0.02% and <0.05%)
- Impurity RRT 0.99 (3 M, Avg): 0.09 area %
- Impurity RRT 1.02 (3 M, Avg): NQ (≥0.02% and <0.05%)
- Impurity RRT 1.05 (3 M, Avg): —
- Impurity RRT 1.06 (Cmpd 4) (3 M, Avg): NQ (≥0.02% and <0.05%)
- Impurity RRT 1.17 (Cmp 6) (3 M, Avg): 0.33 area %
- Purity (3 M, Avg): 99.4%
- Water Content (3 M, Avg): 0.04%
- Impurities Total (3 M, Prep P1-P2): 0.4 area %
- Impurity RRT 0.80 (3 M, Prep P1-P2): NQ (≥0.02% and <0.05%)
- Impurity RRT 0.84 (3 M, Prep P1-P2): NQ (≥0.02% and <0.05%)
- Impurity RRT 0.87 (3 M, Prep P1-P2): NQ (≥0.02% and <0.05%)
- Impurity RRT 0.99 (3 M, Prep P1-P2): 0.09 area %
- Impurity RRT 1.02 (3 M, Prep P1-P2): NQ (≥0.02% and <0.05%)
- Impurity RRT 1.05 (3 M, Prep P1-P2): —
- Impurity RRT 1.17 (Cmp 6) (3 M, Prep P1-P2): 0.33 area %
- Water Content (3 M, Prep P1-P2): 0.04%
- Assay [2]: 96.8% and 98.8%
- Purity [2]: 99.4% and 99.5%
- Assay (6 M, Avg): 98.7%
- Impurities Total (6 M, Avg): 0.3 area %
- Impurity RRT 0.80 (6 M, Avg): NQ (≥0.02% and <0.05%)
- Impurity RRT 0.84 (6 M, Avg): NQ (≥0.02% and <0.05%)
- Impurity RRT 0.87 (6 M, Avg): NQ (≥0.02% and <0.05%)
- Impurity RRT 0.99 (6 M, Avg): 0.05 area %
- Impurity RRT 1.02 (6 M, Avg): 0.05 area %
- Impurity RRT 1.05 (6 M, Avg): NQ (≥0.02% and <0.05%)
- Impurity RRT 1.06 (Cmpd 4) (6 M, Avg): NQ (≥0.02% and <0.05%)
- Impurity RRT 1.17 (Cmp 6) (6 M, Avg): 0.24 area %
- Impurity RRT 1.39 (6 M, Avg): NQ (≥0.02% and <0.05%)
- Purity (6 M, Avg): 99.5%
- Water Content (6 M, Avg): <0.04%
- Impurities Total (6 M, Prep P1-P2): 0.3 area %
- Impurity RRT 0.80 (6 M, Prep P1-P2): NQ (≥0.02% and <0.05%)
